B1: 21M18 H7L2: humanized form of the murine 21M18 antibody; anti-human DLL4 antibody (antibody, V domains shown)
VH: QVQLVQSGAEVKKPGASVKISCKASGYSFTAYYIHWVKQAPGQGLEWIGYISSYNGATNYNQKFKGRVTFTTDTSTSTAYMELRSLRSDDTAVYYCARDYDYDVGMDYWGQGTLVTVSS
VL: DIVMTQSPDSLAVSLGERATISCRASESVDNYGISFMKWFQQKPGQPPKLLIYAASNQGSGVPDRFSGSGSGTDFTLTISSLQAEDVAVYYCQQSKEVPWTFGGGTKVEIK

Legend:
C9 colon tumor = C9 colon tumor recurrence xenograft model; format: in vivo, NOD/SCID mice; details: treatment from 2 days after injection; antibody 10 mg/kg twice a week, irinotecan […] once a week, intraperitoneally; FIG. 4
Protocol: Starting 2 days after injection, mice were treated with irinotecan alone (Δ) or anti-human DLL4 antibody (21M18 […]) plus irinotecan (▾). Treatment in both groups was discontinued on the indicated day and tumor growth was monitored for an additional period of time. […] Both antibodies and chemotherapeutic agents were administered intraperitoneally. Tumor growth was measured with electronic calipers at the indicated time points.

PN8 pancreatic tumor = PN8 pancreatic tumor recurrence xenograft model after gemcitabine; format: in vivo, NOD/SCID mice; details: after gemcitabine 100 mg/kg once a week for 4 weeks; antibodies 10 mg/kg once a week from day 53; vs control antibody; FIG. 5
Protocol: The PN8 pancreatic tumor was determined to have a K-ras mutation, a glycine to aspartic acid mutation at codon 12, that is a known activating mutation. Anti-DLL4 antibodies were tested for efficacy in this xenograft tumor model. Dissociated PN8 pancreatic tumor cells (10,000 cells) were injected subcutaneously into the flanks of 6-8 week old NOD/SCID mice. Tumors were allowed to grow for 28 days until they reached an average volume of 173 mm^3. […] On day 53, the gemcitabine treatments were stopped and antibody treatments initiated. Mice were treated with control antibody ([…]), anti-mouse DLL4 antibody (21R30) (▾), anti-human DLL4 antibody (21M18 H7L2) (▴), or a combination of anti-mouse DLL4 antibody and anti-human DLL4 antibody (21R30+21M18 H7L2) (□). […] Both antibodies and chemotherapeutic agents were administered intraperitoneally. Tumor growth was measured with electronic calipers at the indicated time points.

| Molecule | tumor growth after cessation of treatment (C9 colon tumor) | tumor recurrence after chemotherapy (PN8 pancreatic tumor) |
| --- | --- | --- |
| CCc1c2c(nc3ccc(OC(=O)N4CCC(N5CCCCC5)CC4)cc13)-c1cc3c(c(=O)n1C2)COC(=O)[C@]3(O)CC [Irinotecan, irinotecan] | tumor growth progressed | – |
| B1 | – | more substantial effect in inhibiting and/or delaying tumor re-growth |

Source: patent US20160243223A1, “METHODS FOR TREATING CANCERS COMPRISING K-RAS MUTATIONS” (OncoMed Pharmaceuticals, Inc., priority 2009, published 2016)
